Results published in US8207209B2, “Methods of inhibiting viral infection” (priority 2007, dated 2012).
“Also recorded” adds a separate entry of the source.

Assays:
West Nile Virus = type: cell-based
Marburg virus [1] = system: Marburg virus; parameters: species or system mice; details: mouse, in vivo
Caspase 2 = Caspase 2 (Homo sapiens, UniProt P42575); type: biochemical
Caspase 3 = Caspase 3 (Homo sapiens, UniProt P42574); type: biochemical
Hepatitis C Virus = type: cell-based
Lassa Fever Virus = type: cell-based
cowpox virus [2] = type: cell-based
Caspase 1 = Caspase 1 (Homo sapiens, UniProt P29466); type: biochemical
Ebola virus [3] = assay: microbe, parasite or virus in culture; type: cell-based
Caspase 4 = Caspase 4 (Homo sapiens, UniProt P49662); assay: Caspase inhibition; type: biochemical
Caspase 10 = Caspase 10 (Homo sapiens, UniProt Q92851); assay: Caspase inhibition; type: biochemical
Ebola virus [4] = system: Ebola virus; parameters: species or system mice; details: mouse, in vivo
Caspase 8 = Caspase 8 (Homo sapiens, UniProt Q14790); type: biochemical
Marburg virus [5] = assay: organism not typed; type: cell-based
Caspase 9 = Caspase 9 (Homo sapiens, UniProt P55211); type: biochemical
[6] = system: Paramyxoviruses including Parainfluenza and Respiratory Syncitial Virus; type: cell-based
[7] = In vivo safety/toxicity (LD50) study of 723
[8] = Serum concentration of 723 in guinea pigs; details: guinea pig
wide variety of cells = assay: CC50 cytotoxicity of 723 in a variety of cell types; details: cell based assays against a wide variety of cells
Influenza = type: cell-based, influenza virus
in vivo = details: mouse, ip, 10 mg/kg
Bovine Corona virus = type: cell-based
PRRS virus = type: cell-based
Hepatitis B virus (HBV) = assay: Hepatitis B virus cell based assay; details: dose response
Dengue serotypes = type: cell-based, Dengue virus
[9] = mouse, in vivo
[10] = mouse, in vivo, ip
PBMC = assay: Cytokine levels in PBMC; details: 5 uM dose
[11] = Serum levels of 365 in BALB/c mice; details: 5 mg/kg dose
HIV = HIV infection in MT-4 cells; type: cell-based; details: modest concentrations
SARS = type: cell-based
[12] = Response of mice to doses of 365 (safety)
cowpox virus [13] = system: cowpox virus; parameters: species or system mice; details: mouse, in vivo
Rift Valley Fever Virus = type: cell-based

Caspase 2, sequence (P42575 170-325 limits assumed, species assumed): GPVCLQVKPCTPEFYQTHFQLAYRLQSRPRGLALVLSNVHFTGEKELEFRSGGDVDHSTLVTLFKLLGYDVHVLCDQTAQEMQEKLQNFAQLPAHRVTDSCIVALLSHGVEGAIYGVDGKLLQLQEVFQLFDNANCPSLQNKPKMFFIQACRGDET
Caspase 2, sequence (P42575 348-452 limits assumed, species assumed): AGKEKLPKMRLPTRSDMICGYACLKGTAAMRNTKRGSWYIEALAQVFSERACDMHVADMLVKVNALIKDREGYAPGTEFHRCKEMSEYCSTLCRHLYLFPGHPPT
Caspase 8, sequence (Q14790 217-374 limits assumed, species assumed): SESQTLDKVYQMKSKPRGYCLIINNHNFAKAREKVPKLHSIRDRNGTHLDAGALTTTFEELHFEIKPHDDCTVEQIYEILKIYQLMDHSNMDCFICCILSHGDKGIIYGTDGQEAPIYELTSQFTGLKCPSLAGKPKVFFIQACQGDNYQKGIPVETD
Caspase 8, sequence (Q14790 385-479 limits assumed, species assumed): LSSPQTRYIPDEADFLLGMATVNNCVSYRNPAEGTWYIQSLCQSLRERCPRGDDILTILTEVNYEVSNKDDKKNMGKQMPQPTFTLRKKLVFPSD
Caspase 1, sequence (P29466 120-297 limits assumed, species assumed): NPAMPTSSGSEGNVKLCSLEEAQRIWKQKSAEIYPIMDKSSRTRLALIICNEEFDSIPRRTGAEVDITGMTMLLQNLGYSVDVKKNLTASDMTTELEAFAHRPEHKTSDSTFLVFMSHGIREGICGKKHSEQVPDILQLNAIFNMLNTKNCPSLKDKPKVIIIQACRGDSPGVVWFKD
Caspase 1, sequence (P29466 317-404 limits assumed, species assumed): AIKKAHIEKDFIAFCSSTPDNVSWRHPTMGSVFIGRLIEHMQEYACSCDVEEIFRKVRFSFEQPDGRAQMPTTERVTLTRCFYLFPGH
Caspase 9, sequence (P55211 1-315 limits assumed, species assumed): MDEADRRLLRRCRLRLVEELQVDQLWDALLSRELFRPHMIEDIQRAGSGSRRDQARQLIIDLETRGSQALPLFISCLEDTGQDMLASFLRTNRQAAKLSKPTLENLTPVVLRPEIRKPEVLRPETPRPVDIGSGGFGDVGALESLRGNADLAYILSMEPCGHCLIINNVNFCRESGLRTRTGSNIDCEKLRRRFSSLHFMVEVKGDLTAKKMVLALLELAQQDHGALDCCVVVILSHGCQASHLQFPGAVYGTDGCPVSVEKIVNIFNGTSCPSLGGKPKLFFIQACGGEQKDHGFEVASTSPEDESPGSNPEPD
Caspase 9, sequence (P55211 331-416 limits assumed, species assumed): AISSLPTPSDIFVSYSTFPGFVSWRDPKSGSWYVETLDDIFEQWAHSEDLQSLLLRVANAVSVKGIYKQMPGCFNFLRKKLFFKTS
Caspase 3, sequence (P42574 29-175 limits assumed, species assumed): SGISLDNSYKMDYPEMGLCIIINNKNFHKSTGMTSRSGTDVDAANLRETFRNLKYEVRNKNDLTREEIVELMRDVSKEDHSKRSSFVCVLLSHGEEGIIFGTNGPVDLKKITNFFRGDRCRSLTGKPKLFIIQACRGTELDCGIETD
Caspase 3, sequence (P42574 176-277 limits assumed, species assumed): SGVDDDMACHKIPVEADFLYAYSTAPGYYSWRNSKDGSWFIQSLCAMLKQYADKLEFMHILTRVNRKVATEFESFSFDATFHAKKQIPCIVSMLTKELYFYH
Caspase 4, sequence (P49662 81-270 limits assumed, species assumed): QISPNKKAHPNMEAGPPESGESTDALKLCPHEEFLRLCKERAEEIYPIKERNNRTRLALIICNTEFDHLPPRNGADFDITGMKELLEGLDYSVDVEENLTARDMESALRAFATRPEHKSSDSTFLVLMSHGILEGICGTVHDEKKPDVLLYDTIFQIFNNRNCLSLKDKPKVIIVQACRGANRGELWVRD
Caspase 4, sequence (P49662 290-377 limits assumed, species assumed): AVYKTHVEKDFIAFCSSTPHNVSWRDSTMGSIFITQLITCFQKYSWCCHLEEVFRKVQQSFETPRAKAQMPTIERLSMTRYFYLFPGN
Caspase 10, sequence (Q92851 220-415 limits assumed): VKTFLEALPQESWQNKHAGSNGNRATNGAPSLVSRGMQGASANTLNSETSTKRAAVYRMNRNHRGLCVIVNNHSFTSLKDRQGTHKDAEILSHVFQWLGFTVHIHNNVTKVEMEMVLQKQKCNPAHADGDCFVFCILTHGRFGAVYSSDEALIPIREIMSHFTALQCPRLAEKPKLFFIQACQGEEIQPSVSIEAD
Caspase 10, sequence (Q92851 416-521 limits assumed): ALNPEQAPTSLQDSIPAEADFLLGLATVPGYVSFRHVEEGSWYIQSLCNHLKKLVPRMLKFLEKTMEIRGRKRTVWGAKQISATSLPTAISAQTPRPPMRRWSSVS

For `N=C(N)c1ccc(-c2ccc(-c3ccc(C(=N)N)cc3)s2)cc1` [Compound 510, benzenecarboxylmidamide,4,4′-(2,5-thiphenediyl)bis], the “inhibition of West Nile Virus” value (West Nile Virus) was 100%, the “protection, measured in terms of survival” value (Marburg virus [1]) was 100% and the “inhibition of Caspase 2” value (Caspase 2) was “elevated inhibition; also recorded: selective inhibition”. For the same compound, the “inhibition of Caspase 3” value (Caspase 3) was “selective inhibition”, the HCV viral titers (Hepatitis C Virus) was “zero” and the “inhibition of Lassa Fever Virus” value (Lassa Fever Virus) was “effective”. The EC50 (cowpox virus [2]) was roughly 250 nM, the “inhibition of Caspase 1” value (Caspase 1) was “elevated inhibition; also recorded: to some degree” and the “inhibition measured in terms of cell survival” value (Ebola virus [3]) was 100%. For the same compound, the “inhibition of Caspase 4” value (Caspase 4) was “not”, the “inhibition of Caspase 10” value (Caspase 10) was “not” and the “protection against Ebola virus, therapeutic” value (Ebola virus [4]) was “provided protection”. For the same compound, the “protection against lethal challenge” value (Ebola virus [4]) was 100%, the “inhibition of Caspase 8” value (Caspase 8) was “elevated inhibition; also recorded: selective inhibition” and the “inhibition measured in terms of cell survival” value (Marburg virus [5]) was 100%. For the same compound, the “inhibition of Caspase 9” value (Caspase 9) was “not” and the “protection against Paramyxovirus challenge” value [6] was “effective”.

In the case of `N=C(N)c1ccc2oc(C=Cc3nc4ccc(C(=N)N)cc4[nH]3)cc2c1` [Compound 723, 2-[2-(5-carbamimidoyl-benzofuran-2-yl)-vinyl]-3H-benzoimidazole-5-carboxamidine], the “protection, measured in terms of survival” value (Marburg virus [1]) is reported as 100%, the lethal dose ([7]; administered on day zero) is reported as 200 mg/kg and the “impact of dosing on weight over time” value ([7]; below 200 mg/kg) is reported as “little or no impact”. The “dose at which compound is well tolerated” value ([7]; in vivo) was “up to 100 mg/kg”, the half-life [8] was 4 h and the CC50 (wide variety of cells) was “well above safety thresholds”. The “effectiveness against Influenza infection” value (Influenza) was “comparatively poorly”, the half-life (in vivo) was 2 h and the “effectiveness against Bovine Corona virus” value (Bovine Corona virus) was “effective”. For the same compound, the “effectiveness in inhibiting PRRS” value (PRRS virus) was “showed effectiveness”, the “effectiveness in treating HBV (reduction in viral copies)” value (Hepatitis B virus (HBV)) was “effectiveness, at nanomolar levels” and the infection inhibition (Ebola virus [3]) was 100%. For the same compound, the EC50 (Ebola virus [3]; Zaire ebolavirus) was no more than 50 nM, the “protection on challenged mice” value (Ebola virus [4]) was 90% and the survival (Ebola virus [4]) was 25%. The treated animals survived (Ebola virus [4]) was 100%, the “effectiveness against Dengue serotypes” value (Dengue serotypes) was “effective” and the “t1/2 in mammalian models” value [9] was “two-four”. The EC50 (Marburg virus [5]) was no more than 50 nM, the infection inhibition (Marburg virus [5]) was 100% and the “protection against Paramyxovirus challenge” value [6] was “effective in conferring a great degree of protection”. For the same compound, the “concentrations in the liver and kidney” value [10] was “high” and the “concentrations in the spleen and the heart” value [10] was “relatively low”.

In the case of `Cc1cc(NCCCN(C)C)c2ccc3c(ccc4c(NCCCN(C)C)cc(C)nc43)c2n1.Cl.Cl.Cl.Cl` [Compound 365, Quino[8,7-h]quinoline-1,7-diamine,N,N′-bis[3-(dimethylamino)propyl]-3,9-dimethyl-tetrahydrochloride], the “cytokine levels relative to agent-free vehicle” value (PBMC) is reported as “not substantially different”, the “time course of serum concentration” value [11] is reported as “leaves the serum relatively rapidly” and the “inhibition of HIV” value (HIV) is reported as 100%. For the same compound, the “effectiveness against Influenza infection” value (Influenza) was “effective”, the “inhibition of HCV (luciferase signal)” value (Hepatitis C Virus) was “complete inhibition” and the “effectiveness against Bovine Corona virus” value (Bovine Corona virus) was “effective; also recorded: inhibited”. For the same compound, the “inhibition of Lassa Fever Virus” value (Lassa Fever Virus) was “suppressed”, the “inhibition of SARS” value (SARS) was “inhibited” and the “dose at which all animals survived” value [12] was “up to 25 mg/kg”. The weight after administration ([12]; up to 25 mg/kg) was “not significantly impacted”, the EC100 (PRRS virus) was 3.2 µM and the “effectiveness in inhibiting PRRS” value (PRRS virus) was “showed effectiveness”. The “inhibition of Ebola virus” value (Ebola virus [3]) was 100%, the “effectiveness against Dengue serotypes” value (Dengue serotypes) was “effective” and the survival outcomes (cowpox virus [13]) was “did not ultimately improve survival outcomes”. For the same compound, the survival times (cowpox virus [13]) was “uniformly extend survival times”, the “suppression of Marburg Virus” value (Marburg virus [5]) was “suppressed” and the EC50 (Rift Valley Fever Virus) was 370 nM. The “inhibition of Rift Valley Fever Virus (zero viral particle release)” value (Rift Valley Fever Virus) was 100%.
